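Protocol summary: plate cells (96-well), add compound at 5 concentrations, incubate 48 h, interpolate endpoints linearly. GI50 = concentration required for 50% inhibition of growth. TGI marks complete inhibition of growth.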 Where a SMILES comes first, the peptide text is derived from it. [ ]: non-standard residue; d: D form. pGlu = O=C1CC[CH](C(=O)O)N1
Experiments:
Assay in all cases: NCI tumour cell line growth inhibition, 48 h
[1] = tested on: CCRF-CEM leukemia
[2] = tested on: EKVX NSCLC
[3] = tested on: HCC-2998 colon
[4] = tested on: HOP-62 NSCLC
[5] = tested on: HS 578T breast
[6] = tested on: T-47D breast
[7] = tested on: TK-10 renal
[8] = tested on: OVCAR-3 ovarian
[9] = tested on: SK-MEL-2 melanoma
[10] = tested on: U251 CNS

C[C@]12C[C@H](CCCCCCNCCOC(=O)NCCCc3ccc(N(CCCl)CCCl)cc3)C3=C4CCC(=O)C=C4CCC3C1CC[C@@H]2O (stereo partly specified)
GI50 [1]: 0.234 µM | TGI [1]: 0.621 µM | GI50 [2]: 2.07 µM | TGI [2]: 4.05 µM | GI50 [3]: 1.81 µM | TGI [3]: 3.23 µM | GI50 [4]: 2.2 µM | TGI [4]: 10.4 µM | GI50 [5]: 1.66 µM | TGI [5]: 4.61 µM | GI50 [6]: 1.17 µM | TGI [6]: 4.5 µM | GI50 [7]: 1.85 µM | TGI [7]: 4.49 µM

C[C@@]1(C(=O)O)CCC[C@]2(C)C1CC[C@@]13CC(=O)[C@@](CO)(CC[C@]12O)C3 (stereo partly specified)
GI50 [1]: > 100 µM | TGI [1]: > 100 µM | GI50 [2]: > 100 µM | TGI [2]: > 100 µM | GI50 [3]: 50.7 µM | TGI [3]: > 100 µM | GI50 [4]: > 100 µM | TGI [4]: > 100 µM | GI50 [5]: > 100 µM | TGI [5]: > 100 µM | GI50 [8]: > 100 µM | TGI [8]: > 100 µM | GI50 [9]: > 100 µM | TGI [9]: > 100 µM | GI50 [6]: 22.2 µM | TGI [6]: > 100 µM | GI50 [7]: > 100 µM | TGI [7]: > 100 µM | GI50 [10]: > 100 µM | TGI [10]: > 100 µM

CCOC(=O)c1c(C)nc2c(c1N)CC(=O)N2Cc1ccc(OC)cc1
GI50 [1]: > 100 µM | TGI [1]: > 100 µM | GI50 [2]: 7.91 µM | TGI [2]: > 100 µM | GI50 [3]: > 100 µM | TGI [3]: > 100 µM | GI50 [4]: 2.1 µM | TGI [4]: 5.97 µM | GI50 [5]: 4.78 µM | TGI [5]: > 100 µM | GI50 [8]: 6.24 µM | TGI [8]: > 100 µM | GI50 [9]: 36.1 µM | TGI [9]: > 100 µM | GI50 [6]: 25.9 µM | TGI [6]: > 100 µM | GI50 [7]: 5.12 µM | TGI [7]: > 100 µM | GI50 [10]: 4.14 µM | TGI [10]: > 100 µM

Clc1nc(Cl)c2ncn(CC3(Cn4cnc5c(Cl)nc(Cl)nc54)COC3)c2n1
GI50 [1]: 0.221 µM | TGI [1]: 0.471 µM | GI50 [2]: 0.821 µM | TGI [2]: 2.43 µM | GI50 [3]: 0.221 µM | TGI [3]: 0.389 µM | GI50 [4]: 0.221 µM | TGI [4]: 0.426 µM | GI50 [5]: 0.316 µM | TGI [5]: 0.868 µM | GI50 [8]: 0.202 µM | TGI [8]: 0.36 µM | GI50 [6]: 0.179 µM | TGI [6]: 0.391 µM | GI50 [7]: 0.601 µM | TGI [7]: 1.2 µM | GI50 [10]: 0.181 µM | TGI [10]: 0.331 µM

N=C1C(c2nc3ccccc3s2)=C(O)CN1c1ccc(F)c(Cl)c1
GI50 [1]: 36.8 µM | TGI [1]: > 100 µM | GI50 [2]: 48.5 µM | TGI [2]: > 100 µM | GI50 [3]: 61.7 µM | TGI [3]: > 100 µM | GI50 [4]: 18.1 µM | TGI [4]: 36.2 µM | GI50 [5]: 22.9 µM | TGI [5]: 64.5 µM | GI50 [8]: 17.7 µM | TGI [8]: 60.4 µM | GI50 [9]: 39 µM | TGI [9]: > 100 µM | GI50 [6]: 72.5 µM | TGI [6]: > 100 µM | GI50 [7]: 22.7 µM | TGI [7]: > 100 µM | GI50 [10]: 5.76 µM | TGI [10]: 23.2 µM

O=c1[nH]c(=O)c2cn[nH]c2[nH]1
GI50 [1]: > 100 µM | TGI [1]: > 100 µM | GI50 [2]: > 100 µM | TGI [2]: > 100 µM | GI50 [3]: > 100 µM | TGI [3]: > 100 µM | GI50 [4]: > 100 µM | TGI [4]: > 100 µM | GI50 [5]: > 100 µM | TGI [5]: > 100 µM | GI50 [8]: > 100 µM | TGI [8]: > 100 µM | GI50 [9]: > 100 µM | TGI [9]: > 100 µM | GI50 [6]: > 100 µM | TGI [6]: > 100 µM | GI50 [7]: > 100 µM | TGI [7]: > 100 µM | GI50 [10]: > 100 µM | TGI [10]: > 100 µM

CC(=O)NC1C(OC[C@@H](CC(=O)N[C@@H](CC(=O)O)CC(=O)N[C@H](CC(=O)N[C@@H](CCCN)CC(=O)N[C@@H](CCCN)CC(=O)N[C@H](CC(N)=O)C(C)C)C(C)C)NC(=O)C[C@@H](N)C(C)C)OC(CO)C(O)C1O (stereo partly specified)
GI50 [1]: > 100 µM | TGI [1]: > 100 µM | GI50 [2]: > 100 µM | TGI [2]: > 100 µM | GI50 [3]: > 100 µM | TGI [3]: > 100 µM | GI50 [4]: > 100 µM | TGI [4]: > 100 µM | GI50 [5]: > 100 µM | TGI [5]: > 100 µM | GI50 [8]: > 100 µM | TGI [8]: > 100 µM | GI50 [9]: > 100 µM | TGI [9]: > 100 µM | GI50 [6]: > 100 µM | TGI [6]: > 100 µM | GI50 [7]: > 100 µM | TGI [7]: > 100 µM | GI50 [10]: > 100 µM | TGI [10]: > 100 µM

C=C(CN1C(=O)CN(C)C1=O)c1ccc(C(=O)Nc2ccccc2N)cc1
GI50 [1]: 11.6 µM | TGI [1]: 87.3 µM | GI50 [2]: 82.3 µM | TGI [2]: > 100 µM | GI50 [3]: 22 µM | TGI [3]: 54.3 µM | GI50 [4]: 17.6 µM | TGI [4]: > 100 µM | GI50 [5]: 22.5 µM | TGI [5]: > 100 µM | GI50 [8]: 24.8 µM | TGI [8]: > 100 µM | GI50 [9]: 30.9 µM | TGI [9]: > 100 µM | GI50 [6]: 2.55 µM | TGI [6]: 22.2 µM | GI50 [7]: 3.44 µM | TGI [7]: 31.5 µM

CCNC(=O)C1CCCN1C(=O)C(CCCN=C(N)N)NC(=O)C(CC(C)C)NC(=O)C(CC(C)C)NC(=O)C(Cc1ccc(O)cc1)NC(=O)C(CO)NC(=O)C(Cc1c[nH]c2ccccc12)NC(=O)C(Cc1cnc[nH]1)NC(=O)C1CCC(=O)N1 (stereo unspecified) ([pGlu]HWSYLLRP-NHEt; configuration not given here)
GI50 [1]: 81.7 µM | TGI [1]: > 100 µM | GI50 [2]: > 100 µM | TGI [2]: > 100 µM | GI50 [3]: > 100 µM | TGI [3]: > 100 µM | GI50 [4]: > 100 µM | TGI [4]: > 100 µM | GI50 [5]: > 100 µM | TGI [5]: > 100 µM | GI50 [8]: > 100 µM | TGI [8]: > 100 µM | GI50 [9]: > 100 µM | TGI [9]: > 100 µM | GI50 [6]: > 100 µM | TGI [6]: > 100 µM | GI50 [7]: > 100 µM | TGI [7]: > 100 µM | GI50 [10]: > 100 µM | TGI [10]: > 100 µM

COc1ccc(-c2cc3c(c4cc(OC)ccc24)C(=O)OC3=O)cc1
TGI [1]: > 100 µM | TGI [2]: > 100 µM | TGI [3]: > 100 µM | TGI [4]: > 100 µM | TGI [5]: > 100 µM | TGI [8]: > 100 µM | TGI [9]: > 100 µM | TGI [6]: > 100 µM | TGI [7]: > 100 µM | TGI [10]: > 100 µM

COc1ccc(/C=C/C(=O)c2cc(OC)c(OC)c(OC)c2)cc1OCc1cn(Cc2ccc(F)cc2)nn1
GI50 [1]: 2.14 µM | TGI [1]: 8.66 µM | GI50 [3]: 3.42 µM | TGI [3]: 11.5 µM | GI50 [4]: 2.14 µM | TGI [4]: 6.18 µM | GI50 [5]: 3.38 µM | TGI [5]: > 100 µM | GI50 [8]: 3.41 µM | TGI [8]: > 100 µM | GI50 [9]: 10.6 µM | TGI [9]: 41 µM | GI50 [6]: 3.05 µM | TGI [6]: > 100 µM | GI50 [7]: 3 µM | TGI [7]: 8.06 µM | GI50 [10]: 2.94 µM | TGI [10]: 19.4 µM

O=c1[nH]nnc2c1ncn2C1OC(CO)C(O)C1O (stereo unspecified)
GI50 [1]: 3.19 µM | TGI [1]: > 100 µM | GI50 [3]: 4.12 µM | TGI [3]: > 100 µM | GI50 [4]: 10.7 µM | TGI [4]: > 100 µM | GI50 [5]: > 100 µM | TGI [5]: > 100 µM | GI50 [8]: 7.75 µM | TGI [8]: > 100 µM | GI50 [9]: 0.707 µM | TGI [9]: 12.2 µM | GI50 [6]: 38.8 µM | TGI [6]: > 100 µM | GI50 [7]: 2.98 µM | TGI [7]: > 100 µM | GI50 [10]: 41.5 µM | TGI [10]: > 100 µM
